Assay results taken from patent US11147820B2, “Methods for treating GI tract disorders” (Neurogastrx, Inc., priority 2012, dated 2021).

Tests used:
[1] = test system: cardiac action potentials; assay: Canine cardiac action potentials by electrocardiography and telemetry; assay type: in vivo; settings: dogs, oral gavage, post-dose period 1-6 hours, vs vehicle
Excerpt: Anesthesia is introduced to dogs. Balanced gaseous anesthesia is used throughout the surgical procedure. Once anesthetized, animals are shaved and surgically scrubbed, encompassing surgical sites of the right inguinal area, chest and right lateral abdomen. Throughout the surgical procedure, animals are monitored for continuous assessment of vital signs. An incision is made along the right medial thigh and the femoral artery exposed by blunt dissection. Another incision is made in the lateral lumbar area cranial to the iliac crest for a tunneling needle to be passed subcutaneously from the incision on the medial thigh to the lumbar incision. A blood pressure catheter is passed through the needle from the lumbar incision and the needle removed. The femoral artery is ligated distally and incised to insert a catheter that is advanced until the tip resided in the femoral artery/abdominal aorta. The catheter is then secured by ligation. The incision in the lumbar area is enlarged and a subcutaneous pocket created in the left dorsal lumbar area to hold the transmitter body. The transmitter (e.g., Data Sciences International, St Paul, Minn., USA) is inserted into the subcutaneous pocket and secured body. Electrocardiography (ECG) leads are positioned. The incision is closed. Postoperative recovery lasts, e.g., about 2 weeks during which supplemental analgesics/antibiotics are administered as needed. Once the postoperative recovery period is complete, the animal is examined for study acceptability by the staff veterinarian and the implanted transmitter signal verified. […] ECGs, heart rate and arterial blood pressure data are recorded 1 hour prior to and then continuously for at least 6 hours following compound and/or vehicle administration. A blood sample for determination of compound plasma concentrations is collected from all subjects at approximately 6 h post-dose. […] Standard ECG intervals (PR, RR, QRS and QT) are automatically measured by the data acquisition system and reported as, e.g., 10 min averages. […] Dose-level averages (and accompanying standard deviation (s.d.) of these baseline-adjusted 10 min averages are calculated across study animals. ANOVA (e.g., repeated measures ANOVA) are applied to these baseline-adjusted averages. Pairwise t-tests are applied within the ANOVA to identify the presence of significant differences of the dose levels relative to vehicle. These t-tests are performed at a 0.05/2=0.025 significance level, so that the overall error rate across the comparisons in a given interval are not higher than 0.05. ECG interval data (reported at 30 min intervals) are analyzed using, e.g., repeated-measures ANOVA techniques similar to the systemic blood pressure and heart rate data described above.

gastric emptying = assay: Gastric emptying in rodents, metopimazine; assay type: in vivo; settings: preliminary
gastric motility = assay: Antral manometry in canines (gastric motility); assay type: in vivo; settings: for motor dysfunction: canines
Protocol: Two healthy female hound dogs (24-28 kg) were involved in this study. Animals were fed an ad libitum chow diet (LabDiet®). After an overnight fast, the dogs were anesthetized with Pentothal (sodium thiopental, 11 mg/kg IV; Abbott Laboratories, North Chicago, Ill.) and maintained on 2-4% isoflurane (Abbott Laboratories) in oxygen (1 L/min) carrier gases delivered from a ventilator after endotracheal intubation. A cannula was placed in the jejunum 20 cm distal to the pylorus for the assessment of antral motility. Dogs were allowed to recover in their individual cages for 2 weeks. All experiments were performed after the dogs were completed recovered from the surgical procedure. The study was performed according to the National Institutes of Health Guidelines on the use of laboratory animals and approved by the Animal Care and Use Committee of the University of Texas Medical Branch at Galveston, Tex. To investigate the effect of the drugs on antral manometry, the study of each drug dose was done on three randomized sessions on separate days following the consumption of one can of solid dog food: 1) a Control session: In which animals received the vehicle only; 2) Dose I session: in which the lower dose of the drug was used; and 3) Dose II session: in which the higher dose of the drug was used (please refer to table for drug doses). Drug administration was performed according to Table 4, below. [table] Antral manometry was performed as follows. Following an overnight fast, an intraluminal water-perfused manometry catheter was inserted into the antrum through the jejunal cannula. Antral manometry recording was initiated after the consumption of one can of solid food and continued for 3 hours. The catheter contained 3 manometric sensors at a 1 cm interval. Dogs were given 10 minutes of accommodation, prior to the start of the recording. For data analysis, motility index (MI), defined as the integrated area (area under curve—AUC) between baseline and contractions per hour, was calculated. For statistical analysis, the Student's t-test was used for assessment of individual differences between groups (High dose, low dose of each drug) compared to control—Microsoft® Excel 2002). All values are expressed as mean±SEM.

solid gastric emptying = assay: Solid gastric emptying in rats, S-carbidopa; assay type: in vivo, Sprague-Dawley rats; settings: 1 mg/kg, initial results
Protocol: Male Sprague-Dawley rats, purchased from the Charles River Lab, were housed in the animal facility of Veterans Research Education Foundation, which was maintained at 22˜24° C., 55% relative humidity, with an automatic 12 h light/dark cycle. The animals received a standard laboratory rat chow and tap water ad libitum. The rats were around 400 g at 14 weeks age when used in gastric emptying study.
S-Carbidopa was purchased from Sigma (#: C1335). Stock solution of S-Carbidopa was prepared at 5 mg/ml using DMSO as solvent. 80 μl stock solution was further diluted into 1 ml distilled water to make 0.4 mg/ml. The effect of S-Carbidopa (1 mg/kg) on solid gastric emptying was studied.
Male SD rats were involved in this study. Rats were fasted in cages with metal wired mesh for 24 hours with free access to water; S-carbidopa (1 mg/kg) was administered to the rats by oral gavage. Control rats were not administered S-carbidopa. 15 minutes following administration, rats were given access to 2 g of rat chow pellets for ten minutes. All rats completely ingested the chow within the 10 minute time frame. Rats were sacrificed by sodium pentobarbital (100 mg/kg) overdose 90 min after feeding. […] Solid gastric emptying was calculated according to the following formula: Gastric emptying (%)=[1−(dried gastric content in g)/2 g]×100. All values are expressed as mean±SEM. […]

Row | SMILES | peripheral restriction (Peripheral restriction) | QTc intervals [1] | motor dysfunction (gastric motility) | further results
1 | CS(=O)(=O)c1ccc2c(c1)N(CCCN1CCC(C(=O)O)CC1)c1ccccc1S2 [Metopimazine acid] | peripherally restricted agents | no significant increases |  | 
2 | CS(=O)(=O)c1ccc2c(c1)N(CCCN1CCC(C(N)=O)CC1)c1ccccc1S2 [Metopimazine, 1-[3-[2-(methylsulfonyl)-10H-phenothiazin-10-yl]propyl]-piperidine-4-carboxamide] | peripherally restricted agents | no significant increases | no motor dysfunction was observed | increase in gastric emptying as compared to vehicle control (gastric emptying; 3 mg/kg): about 40%; increase in gastric emptying as compared to vehicle control, overall effect (gastric emptying; pooling the 3 mg/kg and 10 mg/kg doses): about 20%
3 | C[C@@](Cc1ccc(O)c(O)c1)(NN)C(=O)O [S-Carbidopa, (2S)-3-(3,4-dihydroxyphenyl)-2-hydrazino-2-methylpropanoic acid] |  | no significant increases | no motor dysfunction was observed | solid gastric emptying compared to control rats (solid gastric emptying): improves solid gastric emptying; motility index (MI) (gastric motility; 1 mg/kg IV, 15 min prior to meal, all three channels, p=0.05): robustly increased MI
4 | CN(CCOc1ccc(NS(C)(=O)=O)cc1)CCc1ccc(NS(C)(=O)=O)cc1 [dofetilide] |  | increased |  | 
5 | Cl.NCCc1ccc(O)c(O)c1 [dopamine hydrochloride] |  |  |  | motility index (MI) (gastric motility; 50 mg/canine IV, immediately before meal, all channels, p=0.06): decreased MI
